{"source": "paper PMC10824666", "about": "(Nature Cancer, 2023)", "experiment_in_all_cases": "biochemical", "set-up_in_all_cases": "Eurofins DiscoverX kinase panel, competitive binding assay at 1 uM, percent of DMSO control", "conditions_in_all_cases": "competitive binding, percent of DMSO control", "key": {"[1]": {"target": "T1, Plk 1 (Homo sapiens, UniProt P53350)", "T1 construct": "gene PLK1", "T1 sequence (P53350 whole entry)": "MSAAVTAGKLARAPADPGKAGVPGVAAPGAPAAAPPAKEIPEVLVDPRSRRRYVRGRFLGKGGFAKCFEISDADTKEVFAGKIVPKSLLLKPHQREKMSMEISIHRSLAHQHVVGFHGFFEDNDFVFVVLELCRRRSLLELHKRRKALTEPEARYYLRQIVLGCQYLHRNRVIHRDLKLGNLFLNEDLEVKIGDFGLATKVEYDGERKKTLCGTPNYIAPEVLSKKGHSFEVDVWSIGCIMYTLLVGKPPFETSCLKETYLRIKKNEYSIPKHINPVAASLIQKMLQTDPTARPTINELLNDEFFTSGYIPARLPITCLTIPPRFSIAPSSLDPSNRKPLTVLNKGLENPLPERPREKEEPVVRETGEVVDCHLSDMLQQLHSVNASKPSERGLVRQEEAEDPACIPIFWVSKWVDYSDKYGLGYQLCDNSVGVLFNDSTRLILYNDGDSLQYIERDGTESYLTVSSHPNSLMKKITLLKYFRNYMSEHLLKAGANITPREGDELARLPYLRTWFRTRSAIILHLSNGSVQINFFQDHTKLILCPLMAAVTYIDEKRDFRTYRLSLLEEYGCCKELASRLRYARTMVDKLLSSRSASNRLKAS", "protocol": "(§1) Extended Data Fig. 3 In vitro characterization of potent and selective KIF18A inhibitors. a, KIF18A compounds (1 µM) were assessed across a panel of kinases (n = 96) by a competitive binding assay. Graph presented as percentage of control (POC); dashed line indicates POC value of 30 (n = 1 experiment). b, Tubulin polymerization analysis. Profile of KIF18A compounds (10 µM) relative to DMSO, paclitaxel (5 µM, tubulin stabilizer), or nocodazole (5 µM, tubulin destabilizer). Graphs presented as tubulin fluorescence signal at 440 nm expressed as arbitrary units (a.u.) versus time (min) with area-under-the-curve (AUC) values (n = 1 or 3 independent experiments). c, Mitotic spindle image analysis. […] Representative images were captured with x40 objective (scale bar = 10 µm) (n = 1 experiment). d-f, KIF18A compound effects on HeLa cells. d, Cells were treated for 96 h with DMSO or KIF18A compounds at the indicated concentrations. KIF18A compound concentration-response profiles presented as count relative to the percentage of DMSO control (POC) with count EC50 values (n = 2 independent experiments in duplicate). e, KIF18A protein localization in cells after treatment for 6 hours with DMSO or AM-1882 (0.05 µM). Cells stained to detect DNA, KIF18A, and centrin-3. Representative images of mitotic cells (n = 3 per group) were captured with x60 objective (scale bar = 5 µm) and graphs of line scan measurements were obtained for DNA, KIF18A, and centrin-3 channels expressed as fluorescence intensity (a.u.) versus distance (µm) (n = 1 experiment). f, Mitotic cell fate imaging analysis. HeLa Kyoto cells co-expressing α-tubulin-EGFP and H2B-mCherry proteins released from a G1S block in media containing DMSO or AM-1882 (0.2 µM). Analysis was performed on cells entering the first mitosis (n = 40 cells per group). Graph presented as time in mitosis (h) versus mitotic cell fate, either complete cell division (CCD) or death in mitosis (DiM). Classified cells exiting mitosis by the number of daughter cells and cell death in […] We screened a small-molecule library of diverse compounds for selective inhibitors of KIF18A MT-ATPase motor activity. Two compound hits were discovered that phenocopied the effects of KIF18A KD in cells; these hits are structurally distinct from the KIF18A inhibitor BTB-1 (refs. [27],[28]). […] However, the potency of the KIF18A inhibitors was unaffected by varying ATP and MT concentrations (Extended Data Fig. 2d). This supports our proposed model in which KIF18A inhibitors occupy an allosteric pocket formed by motor helices α4 and α6 close to the motor MT-binding surface. To screen for potential off-target interactions with essential mitotic kinases, three of the KIF18A compounds were profiled against a large panel of kinases. […] We next investigated whether our KIF18A inhibitors affected tubulin polymerization in vitro in the absence of the KIF18A motor. All four KIF18A compounds had tubulin-polymerization profiles similar to that of the DMSO control and distinct from those of the paclitaxel (MT stabilizer) and nocodazole (MT destabilizer) co"}, "[2]": {"target": "TGFBR2 (Homo sapiens, UniProt P37173)", "sequence (P37173 whole entry)": "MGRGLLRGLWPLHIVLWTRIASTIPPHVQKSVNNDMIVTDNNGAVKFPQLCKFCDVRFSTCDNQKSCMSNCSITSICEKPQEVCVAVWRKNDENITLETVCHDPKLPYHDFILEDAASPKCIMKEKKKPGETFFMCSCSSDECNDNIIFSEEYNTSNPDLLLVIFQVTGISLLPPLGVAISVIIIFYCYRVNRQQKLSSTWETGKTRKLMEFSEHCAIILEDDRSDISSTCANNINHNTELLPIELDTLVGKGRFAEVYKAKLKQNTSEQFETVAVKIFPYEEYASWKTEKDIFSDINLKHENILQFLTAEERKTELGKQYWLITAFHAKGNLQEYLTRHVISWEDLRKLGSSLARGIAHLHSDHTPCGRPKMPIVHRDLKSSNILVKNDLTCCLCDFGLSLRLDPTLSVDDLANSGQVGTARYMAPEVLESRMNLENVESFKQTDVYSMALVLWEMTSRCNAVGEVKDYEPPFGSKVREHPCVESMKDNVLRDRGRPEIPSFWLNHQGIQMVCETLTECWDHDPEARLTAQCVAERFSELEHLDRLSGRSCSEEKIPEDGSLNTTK", "protocol": "as §1"}, "[3]": {"target": "LCK (Homo sapiens, UniProt P06239)", "sequence (P06239 whole entry)": "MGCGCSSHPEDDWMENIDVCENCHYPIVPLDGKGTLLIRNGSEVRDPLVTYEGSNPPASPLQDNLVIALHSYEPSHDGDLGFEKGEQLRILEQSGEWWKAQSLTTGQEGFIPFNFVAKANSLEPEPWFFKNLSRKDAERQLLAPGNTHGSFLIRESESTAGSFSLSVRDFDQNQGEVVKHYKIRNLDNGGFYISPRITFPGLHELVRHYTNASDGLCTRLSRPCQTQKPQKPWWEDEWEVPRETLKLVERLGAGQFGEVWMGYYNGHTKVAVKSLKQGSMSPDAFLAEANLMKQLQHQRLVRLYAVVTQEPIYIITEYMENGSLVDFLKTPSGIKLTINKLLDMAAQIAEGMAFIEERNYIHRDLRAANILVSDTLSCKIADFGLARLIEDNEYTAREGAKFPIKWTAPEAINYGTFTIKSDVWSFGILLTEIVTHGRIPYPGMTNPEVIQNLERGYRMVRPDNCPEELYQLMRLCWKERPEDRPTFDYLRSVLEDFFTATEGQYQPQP", "protocol": "as §1"}, "[4]": {"target": "T2, PRKG1 (Homo sapiens, UniProt Q13976)", "T2 sequence (Q13976 1-671)": "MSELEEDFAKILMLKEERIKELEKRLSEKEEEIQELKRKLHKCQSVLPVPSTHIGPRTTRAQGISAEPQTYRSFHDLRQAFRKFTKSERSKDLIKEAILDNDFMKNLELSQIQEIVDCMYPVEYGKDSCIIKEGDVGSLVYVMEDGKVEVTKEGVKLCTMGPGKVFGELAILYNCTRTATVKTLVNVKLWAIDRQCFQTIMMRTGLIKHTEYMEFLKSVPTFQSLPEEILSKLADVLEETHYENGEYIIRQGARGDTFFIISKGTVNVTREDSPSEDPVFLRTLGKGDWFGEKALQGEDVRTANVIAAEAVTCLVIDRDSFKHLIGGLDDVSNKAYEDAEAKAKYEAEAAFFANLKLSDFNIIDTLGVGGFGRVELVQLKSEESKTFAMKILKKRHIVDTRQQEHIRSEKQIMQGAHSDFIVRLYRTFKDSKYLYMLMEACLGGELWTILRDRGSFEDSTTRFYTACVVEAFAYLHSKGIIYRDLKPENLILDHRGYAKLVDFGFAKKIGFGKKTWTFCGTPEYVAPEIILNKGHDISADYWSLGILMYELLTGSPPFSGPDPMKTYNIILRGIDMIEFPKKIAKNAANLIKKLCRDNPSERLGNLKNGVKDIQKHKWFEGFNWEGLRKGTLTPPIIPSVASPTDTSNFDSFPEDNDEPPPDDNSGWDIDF", "protocol": "as §1"}, "[5]": {"target": "LIMK1 (Homo sapiens, UniProt P53667)", "sequence (P53667 whole entry)": "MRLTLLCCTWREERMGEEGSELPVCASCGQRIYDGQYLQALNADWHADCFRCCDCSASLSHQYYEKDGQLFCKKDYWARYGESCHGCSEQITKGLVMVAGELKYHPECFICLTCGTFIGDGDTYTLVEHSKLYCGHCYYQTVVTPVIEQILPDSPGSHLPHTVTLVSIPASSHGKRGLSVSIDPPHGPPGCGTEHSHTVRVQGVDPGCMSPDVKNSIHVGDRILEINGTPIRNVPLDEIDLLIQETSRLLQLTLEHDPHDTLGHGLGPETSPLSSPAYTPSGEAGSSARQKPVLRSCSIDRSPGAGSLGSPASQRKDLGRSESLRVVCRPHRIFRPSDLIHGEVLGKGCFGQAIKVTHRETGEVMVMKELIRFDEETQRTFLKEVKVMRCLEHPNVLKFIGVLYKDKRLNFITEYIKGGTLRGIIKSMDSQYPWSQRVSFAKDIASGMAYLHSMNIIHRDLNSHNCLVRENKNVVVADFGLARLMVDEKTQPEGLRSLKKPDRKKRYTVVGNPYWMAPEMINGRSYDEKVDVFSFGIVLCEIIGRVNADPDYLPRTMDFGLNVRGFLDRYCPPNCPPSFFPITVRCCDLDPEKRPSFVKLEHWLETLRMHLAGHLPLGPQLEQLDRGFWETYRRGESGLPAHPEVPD", "protocol": "as §1"}, "[6]": {"target": "TNIK (Homo sapiens, UniProt Q9UKE5)", "sequence (Q9UKE5 whole entry)": "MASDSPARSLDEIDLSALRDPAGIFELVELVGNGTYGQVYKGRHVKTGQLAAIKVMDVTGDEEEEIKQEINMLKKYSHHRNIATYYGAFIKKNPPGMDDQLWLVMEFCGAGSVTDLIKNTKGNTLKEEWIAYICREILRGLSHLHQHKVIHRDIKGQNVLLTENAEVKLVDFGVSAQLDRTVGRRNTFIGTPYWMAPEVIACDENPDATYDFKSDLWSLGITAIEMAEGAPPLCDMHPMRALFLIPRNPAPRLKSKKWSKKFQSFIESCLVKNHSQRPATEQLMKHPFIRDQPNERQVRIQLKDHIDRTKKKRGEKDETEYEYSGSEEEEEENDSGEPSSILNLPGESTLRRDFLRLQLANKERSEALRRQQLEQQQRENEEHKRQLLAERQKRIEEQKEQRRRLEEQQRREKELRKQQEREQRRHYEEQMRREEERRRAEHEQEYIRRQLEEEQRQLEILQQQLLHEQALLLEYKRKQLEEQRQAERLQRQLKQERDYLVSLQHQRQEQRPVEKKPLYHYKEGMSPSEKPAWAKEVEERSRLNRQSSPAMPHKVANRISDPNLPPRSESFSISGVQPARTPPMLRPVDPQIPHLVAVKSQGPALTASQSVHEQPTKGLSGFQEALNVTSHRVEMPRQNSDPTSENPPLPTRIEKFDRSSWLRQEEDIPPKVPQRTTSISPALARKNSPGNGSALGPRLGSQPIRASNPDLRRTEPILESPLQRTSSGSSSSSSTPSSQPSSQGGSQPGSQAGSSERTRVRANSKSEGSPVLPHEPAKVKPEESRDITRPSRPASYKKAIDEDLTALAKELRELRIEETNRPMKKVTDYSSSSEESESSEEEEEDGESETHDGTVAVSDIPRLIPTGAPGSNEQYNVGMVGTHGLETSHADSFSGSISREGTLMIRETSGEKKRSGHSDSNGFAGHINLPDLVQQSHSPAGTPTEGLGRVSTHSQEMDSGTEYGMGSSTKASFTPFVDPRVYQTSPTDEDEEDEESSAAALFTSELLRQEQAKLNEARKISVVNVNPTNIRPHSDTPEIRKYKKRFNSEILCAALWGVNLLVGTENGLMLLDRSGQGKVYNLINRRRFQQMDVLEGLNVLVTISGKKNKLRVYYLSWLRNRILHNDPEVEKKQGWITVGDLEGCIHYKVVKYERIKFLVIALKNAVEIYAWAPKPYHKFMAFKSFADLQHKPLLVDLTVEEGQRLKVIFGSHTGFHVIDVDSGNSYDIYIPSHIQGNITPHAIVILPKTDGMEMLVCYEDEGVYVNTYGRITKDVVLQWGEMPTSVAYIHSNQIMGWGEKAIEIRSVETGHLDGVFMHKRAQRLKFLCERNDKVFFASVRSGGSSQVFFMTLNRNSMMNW", "protocol": "as §1"}, "[7]": {"target": "T3, JNK3 (Homo sapiens, UniProt P53779)", "T3 construct": "gene MAPK10", "protocol": "as §1"}, "[8]": {"target": "T4, IGF-1R (Homo sapiens, UniProt P08069)", "T4 construct": "gene IGF1R", "T4 sequence (P08069 whole entry)": "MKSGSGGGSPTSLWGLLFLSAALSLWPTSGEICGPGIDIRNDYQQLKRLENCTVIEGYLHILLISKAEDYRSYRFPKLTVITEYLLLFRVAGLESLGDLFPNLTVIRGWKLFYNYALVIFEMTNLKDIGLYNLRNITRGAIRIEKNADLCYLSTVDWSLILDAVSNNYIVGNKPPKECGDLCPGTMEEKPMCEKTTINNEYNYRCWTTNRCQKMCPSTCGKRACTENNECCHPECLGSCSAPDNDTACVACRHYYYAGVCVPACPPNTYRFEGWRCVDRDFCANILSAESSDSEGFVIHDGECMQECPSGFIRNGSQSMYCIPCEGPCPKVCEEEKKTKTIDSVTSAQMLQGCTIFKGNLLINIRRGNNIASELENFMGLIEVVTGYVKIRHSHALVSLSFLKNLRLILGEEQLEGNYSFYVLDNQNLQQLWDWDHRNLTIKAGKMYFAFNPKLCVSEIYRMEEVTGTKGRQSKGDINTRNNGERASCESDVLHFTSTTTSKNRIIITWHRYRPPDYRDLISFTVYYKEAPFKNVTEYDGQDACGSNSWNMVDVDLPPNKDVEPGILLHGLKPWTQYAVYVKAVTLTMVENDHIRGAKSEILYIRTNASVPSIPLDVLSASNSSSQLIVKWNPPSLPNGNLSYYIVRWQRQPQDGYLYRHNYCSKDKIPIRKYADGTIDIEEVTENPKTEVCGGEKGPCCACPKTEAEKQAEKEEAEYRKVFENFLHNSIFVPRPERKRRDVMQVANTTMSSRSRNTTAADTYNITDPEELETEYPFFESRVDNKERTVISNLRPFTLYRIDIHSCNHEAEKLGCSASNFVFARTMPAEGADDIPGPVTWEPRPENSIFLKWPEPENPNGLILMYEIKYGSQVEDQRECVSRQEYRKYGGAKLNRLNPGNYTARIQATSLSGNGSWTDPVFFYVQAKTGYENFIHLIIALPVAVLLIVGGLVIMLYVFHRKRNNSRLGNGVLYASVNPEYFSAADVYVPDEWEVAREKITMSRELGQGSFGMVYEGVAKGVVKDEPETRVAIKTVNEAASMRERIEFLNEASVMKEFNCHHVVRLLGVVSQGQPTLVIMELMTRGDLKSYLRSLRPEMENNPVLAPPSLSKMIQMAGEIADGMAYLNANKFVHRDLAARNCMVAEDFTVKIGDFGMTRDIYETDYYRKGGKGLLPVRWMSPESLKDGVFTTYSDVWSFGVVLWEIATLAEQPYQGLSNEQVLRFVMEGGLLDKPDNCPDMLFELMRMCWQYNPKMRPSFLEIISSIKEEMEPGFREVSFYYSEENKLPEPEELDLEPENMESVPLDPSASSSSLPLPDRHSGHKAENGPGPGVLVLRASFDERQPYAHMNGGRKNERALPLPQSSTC", "protocol": "as §1"}, "[9]": {"conditions": "read-out: Kinome Profiling performed by Eurofins DiscoverX / AM-1882, 1.0 µM / POC"}, "[10]": {"conditions": "read-out: Kinome Profiling performed by Eurofins DiscoverX / AM-0277, 1.0 µM / POC"}, "[11]": {"conditions": "read-out: Kinome Profiling performed by Eurofins DiscoverX / AM-5308, 1.0 µM / POC"}}, "note": "Read-outs that look alike come from different tables or passages of the source.", "data": [{"smiles": "CC(C)(C)NS(=O)(=O)c1cccc(NC(=O)c2ccc(S(=O)(=O)NC(C)(C)C)cc2N2CCC3(CC2)CC3)c1", "note": "[AM-1882]", "values": [{"measurement": "remaining activity at 1 µM", "setting": "[1]; [9]", "value": 100, "unit": "%"}, {"measurement": "remaining activity at 1 µM", "setting": "[2]; [9]", "value": 99.5, "unit": "%"}, {"measurement": "remaining activity at 1 µM", "setting": "[3]; [9]", "value": 95, "unit": "%"}, {"measurement": "remaining activity at 1 µM", "setting": "[4]; [9]", "value": 89, "unit": "%"}, {"measurement": "remaining activity at 1 µM", "setting": "[5]; [9]", "value": 87, "unit": "%"}, {"measurement": "remaining activity at 1 µM", "setting": "[6]; [9]", "value": 82, "unit": "%"}, {"measurement": "remaining activity at 1 µM", "setting": "[7]; [9]", "value": 82, "unit": "%"}, {"measurement": "remaining activity at 1 µM", "setting": "[8]; [9]", "value": 83, "unit": "%"}]}, {"smiles": "CC(C)(CO)Nc1ccc(C(=O)Nc2cccc(S(=O)(=O)C3CCCC3)c2)c(N2CCC3(CC2)CC3)n1", "note": "[AM-0277]", "values": [{"measurement": "remaining activity at 1 µM", "setting": "[1]; [10]", "value": 100, "unit": "%"}, {"measurement": "remaining activity at 1 µM", "setting": "[2]; [10]", "value": 75, "unit": "%"}, {"measurement": "remaining activity at 1 µM", "setting": "[3]; [10]", "value": 92, "unit": "%"}, {"measurement": "remaining activity at 1 µM", "setting": "[4]; [10]", "value": 87, "unit": "%"}, {"measurement": "remaining activity at 1 µM", "setting": "[5]; [10]", "value": 95, "unit": "%"}, {"measurement": "remaining activity at 1 µM", "setting": "[6]; [10]", "value": 88, "unit": "%"}, {"measurement": "remaining activity at 1 µM", "setting": "[7]; [10]", "value": 100, "unit": "%"}, {"measurement": "remaining activity at 1 µM", "setting": "[8]; [10]", "value": 97, "unit": "%"}]}, {"smiles": "C[C@@H]1CN(c2cccc(NC(=O)c3ccc(NS(=O)(=O)CCO)cc3N3CCC4(CC3)CC4)n2)CCO1", "note": "[AM-5308]", "values": [{"measurement": "remaining activity at 1 µM", "setting": "[1]; [11]", "value": 95, "unit": "%"}, {"measurement": "remaining activity at 1 µM", "setting": "[2]; [11]", "value": 100, "unit": "%"}, {"measurement": "remaining activity at 1 µM", "setting": "[3]; [11]", "value": 92, "unit": "%"}, {"measurement": "remaining activity at 1 µM", "setting": "[4]; [11]", "value": 100, "unit": "%"}, {"measurement": "remaining activity at 1 µM", "setting": "[5]; [11]", "value": 92.5, "unit": "%"}, {"measurement": "remaining activity at 1 µM", "setting": "[6]; [11]", "value": 52.5, "unit": "%"}, {"measurement": "remaining activity at 1 µM", "setting": "[7]; [11]", "value": 88.5, "unit": "%"}, {"measurement": "remaining activity at 1 µM", "setting": "[8]; [11]", "value": 86.5, "unit": "%"}]}]}
